3 compounds from publication PMC11285769, “A pan-respiratory antiviral chemotype targeting a transient host multi-protein complex” (Open Biology, 2024) can be followed below.

One experiment deals with FLUV A/WSN/33. The experiment is classed as cell-based, influenza A/WSN/33.
Experiment [1] deals with SARS-CoV-2 Omicron variant (lineage B.A.1). The class given is cell-based.
Experiment [2] relates to SARS-CoV-2 gamma variant, lineage P.1. The experiment is classed as cell-based.
Experiment [3] concerns SARS-CoV-2 delta variant (lineage B.1.617.2). The class given is cell-based.

Structures are written as SMILES. Where “and” joins values, the source holds several entries; their conditions need not be identical. Equal entries are not always repeated.

As to `COc1cccc(CNC(=O)c2cc(C3CC3)nn2C)c1OC` [PAV-835], in the experiment with FLUV A/WSN/33, the “activity against FLUV after 7 passages with compound” value is listed as “retained the same activity against FLUV as it did against a naive strain”; the “percentage reduction in infection” value is 98.9 percentage and 91.9 percentage.

`CCOC(=O)C1=C[C@@H](OC(CC)CC)[C@H](NC(C)=O)[C@@H](N)C1` [Oseltamivir, reference compound]: the “activity against FLUV after 7 passages with compound” value in the experiment with FLUV A/WSN/33 is on record as “lost activity by passage 7”.

With `COc1c(CNC(=O)c2cc(C3CC3)nn2C)cccc1OC(F)(F)F` [PAV-431], the “efficacy against SARS-CoV-2 Omicron” value in experiment [1] is listed as “significant efficacy”. In addition, the “viral load eliminated compared to vehicle” value in experiment [2] is listed as ≥ 90%. Besides, the “efficacy against SARS-CoV-2 delta variant” value in experiment [3] is “clear trend”.
